Laboratory results as given in patent US11130756B2, “[1,2,4]Triazolo[4,3-A]pyridinyl substituted indole compounds” (BRISTOL-MYERS SQUIBB COMPANY, priority 2017, dated 2021).

Tests used:
Assay type in all cases: cell-based
human TLR8 = target: T1, human TLR8 (Homo sapiens, UniProt Q9NR97); assay: TLR8 inhibition reporter assay (HEK-Blue, SEAP); settings: HEK-Blue cells overexpressing human TLR8, R848 15.9 μM, 22 hour incubation
T1 construct: host or cells: HEK-Blue cells
T1 sequence (Q9NR97 27-1041): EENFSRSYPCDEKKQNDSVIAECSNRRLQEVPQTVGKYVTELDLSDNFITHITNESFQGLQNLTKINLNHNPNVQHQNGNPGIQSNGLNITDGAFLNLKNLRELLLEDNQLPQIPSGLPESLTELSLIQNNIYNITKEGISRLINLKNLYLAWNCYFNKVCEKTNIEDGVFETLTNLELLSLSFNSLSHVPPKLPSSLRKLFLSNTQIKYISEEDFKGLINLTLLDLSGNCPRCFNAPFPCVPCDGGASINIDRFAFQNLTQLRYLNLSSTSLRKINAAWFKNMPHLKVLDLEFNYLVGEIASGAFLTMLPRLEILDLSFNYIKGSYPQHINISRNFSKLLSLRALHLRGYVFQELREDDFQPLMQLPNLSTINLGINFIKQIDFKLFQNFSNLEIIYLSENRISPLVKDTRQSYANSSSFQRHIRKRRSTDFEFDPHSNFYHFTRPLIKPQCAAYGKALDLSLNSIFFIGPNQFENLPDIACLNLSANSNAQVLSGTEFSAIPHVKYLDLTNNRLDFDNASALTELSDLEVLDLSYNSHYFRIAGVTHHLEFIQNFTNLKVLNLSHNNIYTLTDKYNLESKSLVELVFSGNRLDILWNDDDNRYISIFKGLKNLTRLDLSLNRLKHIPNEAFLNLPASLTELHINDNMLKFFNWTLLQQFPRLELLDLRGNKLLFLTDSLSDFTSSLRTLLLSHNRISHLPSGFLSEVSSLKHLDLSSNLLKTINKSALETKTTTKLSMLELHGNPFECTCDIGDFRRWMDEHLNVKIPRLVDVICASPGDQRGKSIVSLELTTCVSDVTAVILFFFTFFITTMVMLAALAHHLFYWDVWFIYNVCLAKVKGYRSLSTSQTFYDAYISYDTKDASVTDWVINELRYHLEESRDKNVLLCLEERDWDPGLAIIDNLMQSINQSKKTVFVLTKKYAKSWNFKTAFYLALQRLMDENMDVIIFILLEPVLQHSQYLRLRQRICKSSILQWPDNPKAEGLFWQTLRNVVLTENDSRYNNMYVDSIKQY
How it was run: (§1)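 Dose–response from 0.05 nM to 50 μM was run in HEK-Blue human TLR7, TLR8 and TLR9 reporter cells. After 30 min at room temperature with compound, ligand was added (TLR7 gardiquimod 7.5 μM; TLR8 R848 15.9 μM; TLR9 ODN2006 5 nM) and SEAP measured next day, at 22 h.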

human TLR7 = target: T2, human TLR7 (Homo sapiens, UniProt Q9NYK1); assay: TLR7 inhibition reporter assay (HEK-Blue, SEAP); settings: HEK-Blue cells overexpressing human TLR7, gardiquimod 7.5 μM, 22 hour incubation
T2 construct: host or cells: HEK-Blue cells
T2 sequence (Q9NYK1 27-1049): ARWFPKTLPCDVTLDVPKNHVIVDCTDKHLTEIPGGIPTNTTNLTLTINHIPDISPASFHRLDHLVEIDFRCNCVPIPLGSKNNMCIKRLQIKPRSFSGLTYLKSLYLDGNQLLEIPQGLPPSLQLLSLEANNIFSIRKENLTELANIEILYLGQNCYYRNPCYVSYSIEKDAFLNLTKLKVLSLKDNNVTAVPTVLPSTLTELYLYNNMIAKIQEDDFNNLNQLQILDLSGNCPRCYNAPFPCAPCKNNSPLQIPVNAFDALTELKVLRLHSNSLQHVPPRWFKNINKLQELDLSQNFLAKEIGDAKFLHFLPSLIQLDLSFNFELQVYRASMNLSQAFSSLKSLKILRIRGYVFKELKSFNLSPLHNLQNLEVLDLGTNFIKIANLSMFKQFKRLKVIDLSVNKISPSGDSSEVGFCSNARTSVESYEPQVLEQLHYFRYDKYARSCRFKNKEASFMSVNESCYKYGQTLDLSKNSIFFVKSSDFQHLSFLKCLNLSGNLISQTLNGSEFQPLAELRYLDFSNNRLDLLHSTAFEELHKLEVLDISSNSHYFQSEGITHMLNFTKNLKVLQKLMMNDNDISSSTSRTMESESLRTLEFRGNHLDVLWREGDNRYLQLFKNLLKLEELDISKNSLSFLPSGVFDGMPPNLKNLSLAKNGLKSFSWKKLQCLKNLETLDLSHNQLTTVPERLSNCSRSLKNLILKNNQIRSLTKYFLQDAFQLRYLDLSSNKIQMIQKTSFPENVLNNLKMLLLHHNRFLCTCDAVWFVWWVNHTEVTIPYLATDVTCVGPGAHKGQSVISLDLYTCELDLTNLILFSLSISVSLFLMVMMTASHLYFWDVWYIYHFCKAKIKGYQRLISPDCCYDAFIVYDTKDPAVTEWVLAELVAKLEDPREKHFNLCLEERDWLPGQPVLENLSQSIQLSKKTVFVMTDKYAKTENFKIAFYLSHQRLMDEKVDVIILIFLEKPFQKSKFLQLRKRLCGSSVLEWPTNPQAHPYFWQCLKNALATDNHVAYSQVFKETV
How it was run: as §1

human TLR9 = target: T3, human TLR9 (Homo sapiens, UniProt Q9NR96); assay: TLR9 inhibition reporter assay (HEK-Blue, SEAP); settings: HEK-Blue cells overexpressing human TLR9, ODN2006 5 nM, 22 hour incubation
T3 construct: host or cells: HEK-Blue cells
T3 sequence (Q9NR96 26-1032): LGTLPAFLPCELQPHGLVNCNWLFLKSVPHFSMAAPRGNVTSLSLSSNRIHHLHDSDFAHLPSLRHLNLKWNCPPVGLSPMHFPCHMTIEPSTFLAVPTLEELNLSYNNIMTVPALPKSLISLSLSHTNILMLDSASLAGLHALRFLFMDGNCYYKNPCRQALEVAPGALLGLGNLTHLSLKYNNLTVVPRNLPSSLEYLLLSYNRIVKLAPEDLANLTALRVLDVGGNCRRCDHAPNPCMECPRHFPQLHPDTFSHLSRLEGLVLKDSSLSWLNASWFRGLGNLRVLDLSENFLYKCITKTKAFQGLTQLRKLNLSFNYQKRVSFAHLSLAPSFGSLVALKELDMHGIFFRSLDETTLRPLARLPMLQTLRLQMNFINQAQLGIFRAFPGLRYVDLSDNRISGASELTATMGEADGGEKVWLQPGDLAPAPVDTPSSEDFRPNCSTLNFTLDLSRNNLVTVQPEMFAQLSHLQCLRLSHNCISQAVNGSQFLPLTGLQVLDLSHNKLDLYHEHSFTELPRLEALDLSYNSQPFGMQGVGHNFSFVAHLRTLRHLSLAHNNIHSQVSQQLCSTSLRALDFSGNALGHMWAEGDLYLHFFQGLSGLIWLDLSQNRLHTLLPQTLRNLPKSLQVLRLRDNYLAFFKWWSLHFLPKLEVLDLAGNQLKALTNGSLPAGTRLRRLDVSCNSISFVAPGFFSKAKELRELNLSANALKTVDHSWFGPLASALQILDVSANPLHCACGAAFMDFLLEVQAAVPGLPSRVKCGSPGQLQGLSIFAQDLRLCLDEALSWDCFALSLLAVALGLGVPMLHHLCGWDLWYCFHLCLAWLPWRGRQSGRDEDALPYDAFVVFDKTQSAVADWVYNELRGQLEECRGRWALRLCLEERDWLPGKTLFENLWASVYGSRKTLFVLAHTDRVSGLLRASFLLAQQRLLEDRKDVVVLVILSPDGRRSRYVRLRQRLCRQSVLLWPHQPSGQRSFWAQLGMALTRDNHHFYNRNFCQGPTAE
How it was run: as §1

| SMILES | IC50 (human TLR8) [nM] | IC50 (human TLR7) [nM] | IC50 (human TLR9) [nM] |
| --- | --- | --- | --- |
| Cc1nnc2ccc(-c3[nH]c4ccc(C5CCN(C6COC6)CC5)cc4c3C(C)C)cn12 [Example 67, 6-(3-isopropyl-5-(1-(oxetan-3-yl)piperidin-4-yl)-1H-indol-2-yl)-3-methyl-[1,2,4]triazolo[4,3-a]pyridine] | 16.6 | 60.3 | 10100 |
| Cc1cc2nncn2cc1-c1[nH]c2ccc(C3CCN(C4CCOCC4)CC3)cc2c1C(C)C [Example 68, 6-(3-isopropyl-5-(1-(tetrahydro-2H-pyran-4-yl)piperidin-4-yl)-1H-indol-2-yl)-7-methyl-[1,2,4]triazolo[4,3-a] pyridine] | 139 | 20.7 | 1250 |
| Cc1c(-c2[nH]c3ccc(C4CCN(C5CCOCC5)CC4)cc3c2C(C)C)ccc2nncn12 [Example 70, 6-(3-isopropyl-5-(1-(tetrahydro-2H-pyran-4-yl)piperidin-4-yl)-1H-indol-2-yl)-5-methyl-[1,2,4]triazolo[4,3-a]pyridine] | 10.8 | 83.5 | 1070 |
| Cc1cc(-c2[nH]c3ccc(C4CCN(C5COC5)CC4)cc3c2C(C)C)cn2c(C)nnc12 [Example 72, 6-(3-isopropyl-5-(1-(oxetan-3-yl)piperidin-4-yl)-1H-indol-2-yl)-3,8-dimethyl-[1,2,4]triazolo[4,3-a]pyridine] | 11.7 | 11.8 | 7870 |
| Cc1cc(-c2[nH]c3ccc(C4CCN(C5CCOCC5)CC4)cc3c2C(C)C)cn2c(C)nnc12 [Example 73, 6-(3-isopropyl-5-(1-(tetrahydro-2H-pyran-4-yl)piperidin-4-yl)-1H-indol-2-yl)-3,8-dimethyl-[1,2,4]triazolo [4,3-a]pyridine] | 1.9 | 20.4 | 562 |
| Cc1c(-c2[nH]c3ccc(C4CCN(C5COC5)CC4)cc3c2C(C)C)cn2cnnc2c1C [Example 75, 6-(3-isopropyl-5-(1-(oxetan-3-yl)piperidin-4-yl)-1H-indol-2-yl)-7,8-dimethyl-[1,2,4]triazolo[4,3-a]pyridine] | 21.7 | 3.3 | 23800 |
| Cc1cc(-c2[nH]c3ccc(C4CCN(C5COC5)CC4)cc3c2C(C)C)c(C)n2cnnc12 [Example 76, 6-(3-isopropyl-5-(1-(oxetan-3-yl)piperidin-4-yl)-1H-indol-2-yl)-5,8-dimethyl-[1,2,4]triazolo[4,3-a]pyridine] | 13.1 | 106 | 16100 |
| Cc1cc(-c2[nH]c3ccc(C4CCN(C5CCOCC5)CC4)cc3c2C(C)C)c(C)n2cnnc12 [Example 77, 6-(3-isopropyl-5-(1-(tetrahydro-2H-pyran-4-yl)piperidin-4-yl)-1H-indol-2-yl)-5,8-dimethyl-[1,2,4]triazolo[4,3-a]pyridine] | 3.6 | 55.9 | 4190 |
| Cc1c(-c2[nH]c3ccc(C4CCN(C5CCOCC5)CC4)cc3c2C(C)C)cn2cnnc2c1C [Example 78, 6-(3-isopropyl-5-(1-(tetrahydro-2H-pyran-4-yl)piperidin-4-yl)-1H-indol-2-yl)-7,8-dimethyl-[1,2,4]triazolo[4,3-a]pyridine] | 4.6 | 1.3 | 1780 |
| Cc1c(-c2[nH]c3ccc(C4CCN(CC5(C)COC5)CC4)cc3c2C(C)C)cn2cnnc2c1C [Example 79, 6-(3-isopropyl-5-(1-((3-methyloxetan-3-yl)methyl)piperidin-4-yl)-1H-indol-2-yl)-7,8-dimethyl-[1,2,4]triazolo[4,3-a]pyridine] | 2 | 1.1 | 3530 |

Now from value to compound:

| IC50 (human TLR8) [nM] | IC50 (human TLR7) [nM] | IC50 (human TLR9) [nM] | SMILES |
| --- | --- | --- | --- |
| 3 | 0.6 | 1040 | Cc1cc(-c2[nH]c3ccc(C4CCN(C5CCOCC5)CC4)cc3c2C(C)C)cn2cnnc12 [Example 69, 6-(3-isopropyl-5-(1-(tetrahydro-2H-pyran-4-yl)piperidin-4-yl)-1H-indol-2-yl)-8-methyl-[1,2,4]triazolo[4,3-a]pyridine] |
| 1.8 | 12.7 | 1130 | Cc1cc(-c2[nH]c3ccc(C4CCN(Cc5ccn(C)n5)CC4)cc3c2C(C)C)cn2c(C)nnc12 [Example 71, 6-(3-isopropyl-5-(1-((1-methyl-1H-pyrazol-3-yl)methyl)piperidin-4-yl)-1H-indol-2-yl)-3,8-dimethyl-[1,2,4]triazolo[4,3-a]pyridine] |
| 1.7 | 1.2 | 908 | Cc1cc(-c2[nH]c3ccc(C4CCN(Cc5ccn(C)n5)CC4)cc3c2C(C)C)cn2cnnc12 [Example 74, 6-(3-isopropyl-5-(1-((1-methyl-1H-pyrazol-3-yl)methyl)piperidin-4-yl)-1H-indol-2-yl)-8-methyl-[1,2,4]triazolo[4,3-a]pyridine] |
| 5.8 | 2.3 | 4550 | Cc1c(-c2[nH]c3ccc(C4CCN(CC5(C)COC5)CC4)cc3c2C(C)C)cn2cnnc2c1Cl [Example 80, 8-chloro-6-(3-isopropyl-5-(1-((3-methyloxetan-3-yl)methyl)piperidin-4-yl)-1H-indol-2-yl)-7-methyl-[1,2,4]triazolo[4,3-a)pyridine] |
